{"source": "paper PMC11589483", "about": "“Preparation and anti-colon cancer effect of a novel curcumin analogue (CA8): in vivo and in vitro evaluation” (Frontiers in Pharmacology, 2024)", "key": {"[1]": {"tested_on": "Caco-2 cells", "assay": "Hoechst 33,258 staining", "type": "cell-based, human", "settings": "Caco-2, 24 h", "method": "Caco-2 cells were seeded in 6-well plates at a density of 5 × 10^5 cells per well and incubated overnight, followed by the addition of the prescribed concentration (4, 8, or 16 μM/L) of CA8. After 24 h of incubation, cells were fixed and stained with Hoechst 33,258."}, "[2]": {"tested_on": "liver cancer cells HepG2", "assay": "MTT antiproliferative assay, HepG2", "type": "cell-based", "settings": "Homo sapiens", "method": "(§1) The human cancer cell lines A549, HepG2, MCF-7, Caco-2, and HeLa and the normal human liver cell line LO2 were all obtained from Shanghai Cell Bank of China. All cells were cultured in RPMI 1640 or DMEM supplemented with 10% fetal bovine serum, 100 U/mL penicillin, and 100 μg/mL streptomycin and incubated at 37°C under 5% CO2 (HEPA incubator class100 Thermo company). The medium was replaced three times a week. Cells used in all were in the exponential growth phase.\n(§2) The cell inhibition rate was evaluated using the MTT assay. Briefly, cells were seeded in a 96-well plate at a density of 3–4 × 10^3 cells per well and incubated at 37°C for 24 h. The MCACs to be tested were dissolved in dimethyl sulfoxide (DMSO, Merck, Germany) and diluted to five concentrations (3.75, 7.5, 15, 30, 60 μM/L) with RPMI 1640 medium, with each dose analyzed in quadruplicate. The concentration of DMSO was always maintained below 1‰, a concentration that is nontoxic to cells. After incubation for 24 or 48 h, MTT reagent (5 mg/mL) was added to each well and the samples were incubated for 3 h at 37°C in the dark. The absorbance of formazan crystals dissolved in 150 µL of DMSO was measured at 570 nm using a microplate reader to identify the cytotoxic effect of the analogues."}, "[3]": {"tested_on": "breast cancer cells MCF-7", "assay": "MTT antiproliferative assay, MCF-7", "type": "cell-based", "settings": "Homo sapiens", "method": "as §1, §2"}, "[4]": {"tested_on": "normal human liver cell line LO2", "assay": "MTT assay, normal liver cells LO2", "type": "cell-based", "method": "as §1, §2"}, "[5]": {"tested_on": "Ki67", "assay": "Immunohistochemistry of tumor tissue", "type": "in vivo, BALB nude mice", "settings": "Caco-2 xenograft, 100 mg/kg"}, "[6]": {"tested_on": "lung cancer cells A549", "assay": "MTT antiproliferative assay, A549", "type": "cell-based", "settings": "Homo sapiens", "method": "as §1, §2"}, "[7]": {"tested_on": "AKT, JNK, and NF-κB signaling pathways and apoptosis-related proteins", "assay": "Western blot of signaling and apoptosis proteins in Caco-2 cells", "type": "cell-based, human", "settings": "24 h", "method": "The expression of apoptotic proteins and pathways was detected using western blot. Caco-2 cells treated with CA8 at a dose of 4, 8, or 16 μM/L for 24 h were collected and lysed with RIPA lysis buffer for 10 min. The concentration of total proteins was determined using a BCA protein quantitative kit. Total proteins were separated on an SDS-PAGE gel, transferred to PVDF membranes and incubated with 5% skim milk for 2 h. Subsequently, the PVDF membranes were incubated with primary antibodies (AKT 1:2000; Bcl-2 1:2000; Bax 1:5000; caspase-3 1:2,000; caspase-9 1:1000; P-AKT 1:1000; JNK 1:1000; P-JNK 1:1000; IKBα 1:2000; and β-actin 1:100000) at 4°C overnight. The membranes were rinsed three times with TBST and incubated with secondary antibodies (1:5000 dilution) for 2–3 h at room temperature. Finally, proteins were visualized using an ECL chemiluminescent kit (KF001, affinity). In the final step, the ImageJ software was used to analyze the results."}, "[8]": {"tested_on": "Caco-2 cells", "assay": "Apoptosis assay (Annexin V-FITC/propidium iodide flow cytometry)", "type": "cell-based, human", "settings": "4, 8, 16 μM, 24 h", "method": "The apoptotic effect of CA8 was assessed in Caco-2 cells according to the kit instructions. First, Caco-2 cells were treated with CA8 at dose of 4, 8, or 16 μM/L for 24 h. The cells were harvested and suspended in 500 μL annexin-binding buffer. Subsequently, the cells were stained with Annexin V-FITC for 15 min and then incubated with propidium iodide for 5 min at room temperature in the dark. Finally, all samples were evaluated via flow cytometry (FACS Calibur, BD, San Jose, CA, United States). The results obtained were analyzed using the FlowJo software, and the apoptotic rate was calculated."}, "[9]": {"tested_on": "Caco-2 xenograft tumors", "assay": "In vivo anticancer activity, Caco-2 xenograft", "method": "Twenty 5-week-old male BALB nude mice purchased from SPF (Beijing) Biotechnology Co., Ltd. were used for the in vivo pharmacodynamic experiment of CA8. Caco-2 cells (6 × 10^6 cells in 100 μL PBS) were harvested and subcutaneously injected into the right hip of the mice. Then, they were divided into four groups when the tumor volume reached 100 mm^3 and treated with saline, CU (100 mg/kg), tegafur (50 mg/kg), or CA8 (100 mg/kg) via gavage every other day. Tumor size and body weight were measured and recorded every other day. At the end of the experiment, the mice were sacrificed and tumors were harvested and weighed. Tumor volumes were calculated by measuring length (L) and width (W) according to the following formula: V = 0.5 × L × W^2. The tumor tissue was embedded in paraffin, cut into slices, stained with HE, and observed under a light microscope."}, "[10]": {"tested_on": "Caco-2 cells", "assay": "Cell cycle analysis (flow cytometry)", "type": "cell-based, human", "settings": "4, 8, 16 μM, 24 h", "method": "Caco-2 cells treated with CA8 at dose of 4, 8, or 16 μM/L for 24 h, they were collected, washed with PBS, and fixed in 70% ethanol overnight. The fixed cells were washed twice with PBS, treated with RNase A (10 mg/mL) and resuspended in 50 μg/mL propidium iodide for staining. Finally, the cell cycle distribution was assessed via flow cytometry (BD Biosciences, CA)."}, "[11]": {"assay": "Solubility in water by HPLC", "type": "physicochemical", "settings": "25°C, mass of solute dissolved at saturation in 100 g of solvent", "method": "The solubility of the synthesized compounds in water was determined using high performance liquid chromatography (HPLC). First, 1.000 g of each compound was accurately weighed, placed in 100 g of water, and stirred at 25°C for a period of time. Then, the reaction system was allowed to stand for 1 h. The supernatant was quantitatively taken, diluted with methanol to volume, and centrifuged, and the solubility was determined using HPLC."}, "[12]": {"tested_on": "cervical cancer cells HeLa", "assay": "MTT antiproliferative assay, HeLa", "type": "cell-based", "settings": "Homo sapiens", "method": "as §1, §2"}, "[13]": {"settings": "Caco-2, 4, 8, 16 μM, vs control"}}}
{"compound": "COc1cc(/C=C2\\CN(C(C)C)C/C(=C\\c3cc(OC)c(O)c(OC)c3)C2=O)cc(OC)c1O", "note": "[CA8]", "values": [{"measurement": "nuclear morphology / apoptotic cells", "setting": "[1]", "result": "many apoptotic cells were observed"}, {"measurement": "IC50", "setting": "[2]; HepG2, 24 h", "result": "1.79 ± 1.32", "unit": "µM"}, {"measurement": "IC50", "setting": "[2]; HepG2, 48 h", "result": "1.84 ± 0.33", "unit": "µM"}, {"measurement": "IC50", "setting": "[3]; MCF7, 24 h", "result": "10.9 ± 4.21", "unit": "µM"}, {"measurement": "IC50", "setting": "[3]; MCF7, 48 h", "result": "7.23 ± 1.55", "unit": "µM"}, {"measurement": "IC50", "setting": "[4]; 24 h", "result": "4.3 ± 0.21", "unit": "µM"}, {"measurement": "IC50", "setting": "[4]; 48 h", "result": "2 ± 0.04", "unit": "µM"}, {"measurement": "expression of Ki67 in tumor tissues", "setting": "[5]", "result": "significantly reduced the expression of Ki67"}, {"measurement": "IC50", "setting": "[6]; A549, 24 h", "result": "5.66 ± 0.25", "unit": "µM"}, {"measurement": "IC50", "setting": "[6]; A549, 48 h", "result": "9.31 ± 1.08", "unit": "µM"}, {"measurement": "expression of Bax, caspase-3, and caspase-9", "setting": "[7]; Caco-2, 4, 8, 16 μM", "result": "increased in a concentration-dependent manner"}, {"measurement": "expression of P-AKT", "setting": "[7]; [13]", "result": "inhibited the expression of P-AKT"}, {"measurement": "expression of P-JNK and IκBα", "setting": "[7]; [13]", "result": "induced the expression of P-JNK and IκBα in a concentration-dependent manner"}, {"measurement": "expression of anti-apoptotic protein BCL-2", "setting": "[7]; Caco-2, high concentration", "result": "significantly inhibited"}, {"measurement": "induction of apoptosis", "setting": "[8]", "result": "induced more apoptosis than CU at high and medium concentrations"}, {"measurement": "tumor inhibition rate", "setting": "[9]; Caco-2 xenograft nude mice, 100 mg/kg via gavage every other day", "result": 63.93, "unit": "%"}, {"measurement": "HE staining of tumor mass", "setting": "[9]; Caco-2 xenograft, 100 mg/kg", "result": "large necrotic area in the tumor mass"}, {"measurement": "inhibitory effect on tumor growth", "setting": "[9]; Caco-2 xenograft, CA8 100 mg/kg, CU 100 mg/kg, tegafur 50 mg/kg, gavage every other day", "result": "more significant inhibitory effect on tumor growth than CU and tegafur"}, {"measurement": "body weight change / toxicity during therapy", "setting": "[9]; nude mice, 13 days of therapy, 100 mg/kg gavage", "result": "did not lead to a significant toxicity"}, {"measurement": "cell cycle arrest", "setting": "[10]", "result": "induced G2/M phase arrest in a concentration-dependent manner"}, {"measurement": "Solubility", "setting": "[11]", "result": 403.44, "unit": "mg/100g"}, {"measurement": "IC50", "setting": "[12]; 24 h", "result": "4.26 ± 0.52", "unit": "µM"}, {"measurement": "IC50", "setting": "[12]; 48 h", "result": "1.96 ± 0.09", "unit": "µM"}]}
